Test results reported in ChEMBL document CHEMBL4304824, “Austalides V and W, new meroterpenoids from the fungus Aspergillus ustus and their antitumor activities” (Bioorg Med Chem Lett, 2019).
The source made the active and inactive calls. No cut-off for these calls is given here.

How the values were obtained:
[1] = system: LNCaP; experiment: Inhibition of cell migration of human LNCAP cells at 8.8 uM measured every 10 mins for 24 hrs by xCELLigence RTCA analysis; assay type: functional, cell-based
[2] = system: LNCaP; experiment: Inhibition of Akt/mTOR pathway in human LNCAP cells assessed as reduction in mTOR phosphorylation at […] residue at 50 uM incubated for 48 hrs by chemiluminescence reagent based autoradiography; assay type: cell-based
[3] = system: LNCaP; experiment: Inhibition of Akt/mTOR pathway in human LNCAP cells assessed as reduction in AKT3 phosphorylation at S473/T308 residues at 50 uM incubated for 48 hrs by chemiluminescence reagent based autoradiography; assay type: cell-based
[4] = system: LNCaP; experiment: Inhibition of Akt/mTOR pathway in human LNCAP cells assessed as reduction in AKT2 phosphorylation at S473/T308 residues at 50 uM incubated for 48 hrs by chemiluminescence reagent based autoradiography; assay type: cell-based
[5] = system: LNCaP; experiment: Effect on total HSP60 level in human LNCAP cells at 50 uM incubated for 48 hrs by chemiluminescence reagent based autoradiography; assay type: ADME, cell-based
[6] = system: LNCaP; experiment: Cytotoxicity against human LNCAP cells assessed as reduction in cell viability incubated for 48 hrs by xCELLigence RTCA analysis; assay type: functional, cell-based
[7] = system: LNCaP; experiment: Inhibition of Akt/mTOR pathway in human LNCAP cells assessed as reduction in AKT1 phosphorylation at S473/T308 residues at 50 uM incubated for 48 hrs by chemiluminescence reagent based autoradiography; assay type: cell-based
[8] = target: Proto-oncogene tyrosine-protein kinase Src (Homo sapiens) (UniProt P12931); experiment: Inhibition of c-Src phosphorylation at Y419 residue in human LNCAP cells at 50 uM incubated for 48 hrs by chemiluminescence reagent based autoradiography; assay type: cell-based
[9] = system: T-24; experiment: Cytotoxicity against human T24 cells assessed as reduction in cell viability incubated for 48 hrs by xCELLigence RTCA analysis; assay type: functional, cell-based; details: T-24, 48 h
[10] = system: LNCaP; experiment: Inhibition of Akt/mTOR pathway in human LNCAP cells assessed as reduction in p70S6 kinase phosphorylation at T421/S424 residues at 50 uM incubated for 48 hrs by chemiluminescence reagent based autoradiography; assay type: cell-based
[11] = system: DU-145; experiment: Cytotoxicity against human DU145 cells assessed as reduction in cell viability incubated for 48 hrs by xCELLigence RTCA analysis; assay type: functional, cell-based; details: DU-145, 48 h
[12] = system: LNCaP; experiment: Cytotoxicity against human LNCAP cells assessed as reduction in cell viability measured after 25 hrs by xCELLigence RTCA analysis; assay type: functional, cell-based
[13] = system: LNCaP; experiment: Inhibition of Akt/mTOR pathway in human LNCAP cells assessed as reduction in PRAS40 phosphorylation at T246 residue at 50 uM incubated for 48 hrs by chemiluminescence reagent based autoradiography; assay type: cell-based
[14] = system: LNCaP; experiment: Antiproliferation activity against human LNCAP cells assessed as reduction in cell density incubated for 72 hrs by microscopic method; assay type: functional, cell-based
[15] = target: Focal adhesion kinase 1 (Homo sapiens) (UniProt Q05397); experiment: Inhibition of FAK phosphorylation at Y397 residue in human LNCAP cells at 50 uM incubated for 48 hrs by chemiluminescence reagent based autoradiography; assay type: cell-based
[16] = system: LNCaP; experiment: Inhibition of cell migration of human LNCAP cells at 8.9 uM measured every 10 mins for 24 hrs by xCELLigence RTCA analysis; assay type: functional, cell-based
[17] = system: LNCaP; experiment: Cytotoxicity against human LNCAP cells assessed as reduction in cell viability incubated for 12 hrs by xCELLigence RTCA analysis; assay type: functional, cell-based

Proto-oncogene tyrosine-protein kinase Src (Homo sapiens), sequence (P12931 2-536 limits assumed): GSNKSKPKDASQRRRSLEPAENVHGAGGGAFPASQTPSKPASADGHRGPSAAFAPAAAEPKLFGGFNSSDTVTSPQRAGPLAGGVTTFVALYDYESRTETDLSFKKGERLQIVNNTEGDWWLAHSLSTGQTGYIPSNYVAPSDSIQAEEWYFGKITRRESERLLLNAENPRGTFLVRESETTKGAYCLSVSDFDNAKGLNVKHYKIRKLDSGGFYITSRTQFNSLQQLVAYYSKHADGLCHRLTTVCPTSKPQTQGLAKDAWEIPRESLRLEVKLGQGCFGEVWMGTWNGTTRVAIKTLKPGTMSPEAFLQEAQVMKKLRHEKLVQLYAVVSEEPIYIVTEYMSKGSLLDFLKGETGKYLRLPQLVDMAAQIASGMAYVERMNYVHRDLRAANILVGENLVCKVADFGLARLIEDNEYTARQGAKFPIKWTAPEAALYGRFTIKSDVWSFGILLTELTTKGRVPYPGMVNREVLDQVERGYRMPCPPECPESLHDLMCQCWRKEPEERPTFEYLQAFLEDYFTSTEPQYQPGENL
Focal adhesion kinase 1 (Homo sapiens), sequence (Q05397 2-1052 limits assumed): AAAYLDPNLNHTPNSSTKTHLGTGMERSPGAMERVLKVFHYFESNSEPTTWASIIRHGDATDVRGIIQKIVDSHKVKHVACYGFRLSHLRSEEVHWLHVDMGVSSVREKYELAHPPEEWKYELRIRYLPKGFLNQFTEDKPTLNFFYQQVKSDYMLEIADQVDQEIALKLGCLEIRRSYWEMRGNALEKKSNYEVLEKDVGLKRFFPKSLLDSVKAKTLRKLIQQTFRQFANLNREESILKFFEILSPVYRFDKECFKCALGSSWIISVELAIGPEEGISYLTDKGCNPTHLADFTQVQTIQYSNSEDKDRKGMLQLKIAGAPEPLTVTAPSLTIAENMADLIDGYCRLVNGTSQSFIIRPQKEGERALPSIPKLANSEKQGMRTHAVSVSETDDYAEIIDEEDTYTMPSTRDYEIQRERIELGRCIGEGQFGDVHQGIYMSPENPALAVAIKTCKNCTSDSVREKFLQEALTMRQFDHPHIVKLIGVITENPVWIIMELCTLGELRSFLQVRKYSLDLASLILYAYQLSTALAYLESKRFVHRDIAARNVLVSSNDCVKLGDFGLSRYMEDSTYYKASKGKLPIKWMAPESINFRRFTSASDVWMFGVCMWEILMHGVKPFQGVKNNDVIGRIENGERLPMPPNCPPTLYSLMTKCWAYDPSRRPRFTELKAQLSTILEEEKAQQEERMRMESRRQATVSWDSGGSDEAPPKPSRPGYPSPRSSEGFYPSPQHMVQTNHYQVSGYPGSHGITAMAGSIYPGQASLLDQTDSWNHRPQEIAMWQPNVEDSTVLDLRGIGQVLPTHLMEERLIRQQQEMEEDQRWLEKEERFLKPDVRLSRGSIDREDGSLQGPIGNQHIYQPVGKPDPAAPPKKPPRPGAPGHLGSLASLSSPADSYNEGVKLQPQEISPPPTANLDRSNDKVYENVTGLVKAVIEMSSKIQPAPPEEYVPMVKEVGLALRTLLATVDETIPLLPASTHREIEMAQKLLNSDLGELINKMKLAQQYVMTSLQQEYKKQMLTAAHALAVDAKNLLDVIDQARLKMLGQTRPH

| inhibition [8] | inhibition [15] | Compound | inhibition [1] | inhibition [2] | inhibition [3] | inhibition [4] | Activity [5] | IC50 [6] [µM] | inhibition [7] | IC50 [9] [µM] | inhibition [10] | IC50 [11] [µM] | inhibition [12] | inhibition [13] | Activity [14] | inhibition [16] | inhibition [17] |
| --- | --- | --- | --- | --- | --- | --- | --- | --- | --- | --- | --- | --- | --- | --- | --- | --- | --- |
| Active | Active | COc1c2c(c(C)c3c1C(=O)OC3)O[C@@]1(C)C[C@]3(O)OC[C@]4(C)O[C@@]5(OC)CC[C@](C)([C@H]1C2)[C@]43O5 | Active | Active | Active | Active | Toxic | 27 | Active | 73 | Active | 73 | Active | Active | Active | – | – |
| – | – | COc1c2c(c(C)c3c1C(=O)OC3)O[C@@]1(C)C[C@]3(O)OC[C@]4(C)O[C@@]5(OC)C[C@@H](OC(C)=O)[C@](C)([C@H]1C2)[C@]43O5 | – | – | – | – | – | 20 | – | 64 | – | 53 | – | – | Active | Active | Dose-dependent effect |
